Data: the supplement of paper PMC10307832

What was measured:
Experiment in all cases: relative viability (nuclei count vs DMSO), 5 days (fraction); higher = more cells survive
CAL-12T = system: CAL-12T
How it was run: (§1)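 Relative viability was taken as the ratio of nuclei in treated wells to nuclei in vehicle wells. Lung cancer cell lines in 1536-well plates received compounds by pin tool one day after seeding, either one drug alone or a fixed anchor-drug dose plus five library-drug doses (not always all listed) in √10 steps. Nuclei were counted on 4× images after 5 days of treatment, and values are medians of duplicate plates.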

NCI-H1755 = system: NCI-H1755
How it was run: as §1

NCI-H2405 = system: NCI-H2405
How it was run: as §1

NCI-H2342 = system: NCI-H2342
How it was run: as §1

PC-14 = system: PC-14
How it was run: as §1

HCC-827 = system: HCC-827
How it was run: as §1

EKVX = system: EKVX
How it was run: as §1

LK-2 = system: LK-2
How it was run: as §1

NCI-H661 = system: NCI-H661
How it was run: as §1

NCI-H520 = system: NCI-H520
How it was run: as §1

NCI-H2228 = system: NCI-H2228
How it was run: as §1

H3255 = system: H3255
How it was run: as §1

NCI-H1734 = system: NCI-H1734
How it was run: as §1

NCI-H1975 = system: NCI-H1975
How it was run: as §1

PC-3 [JPC-3] = system: PC-3 [JPC-3]
How it was run: as §1

LCLC-97TM1 = system: LCLC-97TM1
How it was run: as §1

HCC-15 = system: HCC-15
How it was run: as §1

NCI-H1650 = system: NCI-H1650
How it was run: as §1

NCI-H1355 = system: NCI-H1355
How it was run: as §1

RERF-LC-KJ = system: RERF-LC-KJ
How it was run: as §1

NCI-H322M = system: NCI-H322M
How it was run: as §1

NCI-H1563 = system: NCI-H1563
How it was run: as §1

In the case of `CC(=O)O[C@@]12CO[C@@H]1C[C@H](O)[C@@]1(C)C(=O)[C@H](O)C3=C(C)[C@@H](OC(=O)[C@H](O)[C@@H](NC(=O)OC(C)(C)C)c4ccccc4)C[C@@](O)([C@@H](OC(=O)c4ccccc4)[C@H]21)C3(C)C` [Docetaxel] + Nc1nc2[nH]cc(CCc3ccc(C(=O)N[C@@H](CCC(=O)O)C(=O)O)cc3)c2c(=O)[nH]1 [Pemetrexed] (partner 0.2 µM), the relative viability (CAL-12T; first compound 0.0002 µM) is reported as 1.08, the relative viability (CAL-12T; first compound 0.000632 µM) is reported as 0.83 and the relative viability (CAL-12T; first compound 0.002 µM) is reported as 0.241. It also gave a relative viability (CAL-12T; first compound 0.006325 µM) of 0.272, a relative viability (CAL-12T; first compound 0.02 µM) of 0.19 and a relative viability (NCI-H1755; first compound 0.0002 µM) of 0.545. It also gave a relative viability (NCI-H1755; first compound 0.000632 µM) of 0.438, a relative viability (NCI-H1755; first compound 0.002 µM) of 0.453 and a relative viability (NCI-H1755; first compound 0.006325 µM) of 0.367. For the same compound, the relative viability (NCI-H1755; first compound 0.02 µM) was 0.332, the relative viability (NCI-H2405; first compound 0.0002 µM) was 1.01 and the relative viability (NCI-H2405; first compound 0.000632 µM) was 0.754. It also gave a relative viability (NCI-H2405; first compound 0.002 µM) of 0.671, a relative viability (NCI-H2405; first compound 0.006325 µM) of 0.405 and a relative viability (NCI-H2405; first compound 0.02 µM) of 0.389. For the same compound, the relative viability (NCI-H2342; first compound 0.0002 µM) was 0.731, the relative viability (NCI-H2342; first compound 0.000632 µM) was 0.745 and the relative viability (NCI-H2342; first compound 0.002 µM) was 0.584. The relative viability (NCI-H2342; first compound 0.006325 µM) was 0.495, the relative viability (NCI-H2342; first compound 0.02 µM) was 0.493 and the relative viability (PC-14; first compound 0.0002 µM) was 0.13. For the same compound, the relative viability (PC-14; first compound 0.000632 µM) was 0.144, the relative viability (PC-14; first compound 0.002 µM) was 0.129 and the relative viability (PC-14; first compound 0.006325 µM) was 0.0511. For the same compound, the relative viability (PC-14; first compound 0.02 µM) was 0.0414, the relative viability (HCC-827; first compound 0.0002 µM) was 0.183 and the relative viability (HCC-827; first compound 0.000632 µM) was 0.282. It also gave a relative viability (HCC-827; first compound 0.006325 µM) of 0.238, a relative viability (HCC-827; first compound 0.02 µM) of 0.215 and a relative viability (EKVX; first compound 0.0002 µM) of 0.377. For the same compound, the relative viability (EKVX; first compound 0.000632 µM) was 0.392, the relative viability (EKVX; first compound 0.002 µM) was 0.288 and the relative viability (EKVX; first compound 0.006325 µM) was 0.209. For the same compound, the relative viability (EKVX; first compound 0.02 µM) was 0.193, the relative viability (LK-2; first compound 0.0002 µM) was 0.172 and the relative viability (LK-2; first compound 0.000632 µM) was 0.217. It also gave a relative viability (LK-2; first compound 0.002 µM) of 0.163, a relative viability (LK-2; first compound 0.006325 µM) of 0.119 and a relative viability (LK-2; first compound 0.02 µM) of 0.131. The relative viability (NCI-H661; first compound 0.0002 µM) was 0.947, the relative viability (NCI-H661; first compound 0.000632 µM) was 0.944 and the relative viability (NCI-H661; first compound 0.002 µM) was 0.799. The relative viability (NCI-H661; first compound 0.006325 µM) was 0.572, the relative viability (NCI-H661; first compound 0.02 µM) was 0.366 and the relative viability (NCI-H520; first compound 0.0002 µM) was 0.691. It also gave a relative viability (NCI-H520; first compound 0.000632 µM) of 0.471, a relative viability (NCI-H520; first compound 0.002 µM) of 0.316 and a relative viability (NCI-H520; first compound 0.006325 µM) of 0.207. For the same compound, the relative viability (NCI-H520; first compound 0.02 µM) was 0.159, the relative viability (NCI-H2228; first compound 0.0002 µM) was 0.319 and the relative viability (NCI-H2228; first compound 0.000632 µM) was 0.228. The relative viability (NCI-H2228; first compound 0.002 µM) was 0.154, the relative viability (NCI-H2228; first compound 0.006325 µM) was 0.146 and the relative viability (NCI-H2228; first compound 0.02 µM) was 0.11. It also gave a relative viability (H3255; first compound 0.0002 µM) of 0.494, a relative viability (H3255; first compound 0.000632 µM) of 0.595 and a relative viability (H3255; first compound 0.002 µM) of 0.437. The relative viability (H3255; first compound 0.006325 µM) was 0.368, the relative viability (H3255; first compound 0.02 µM) was 0.359 and the relative viability (NCI-H1734; first compound 0.0002 µM) was 0.425. The relative viability (NCI-H1734; first compound 0.000632 µM) was 0.521, the relative viability (NCI-H1734; first compound 0.002 µM) was 0.405 and the relative viability (NCI-H1734; first compound 0.006325 µM) was 0.303. It also gave a relative viability (NCI-H1734; first compound 0.02 µM) of 0.239, a relative viability (NCI-H1975; first compound 0.0002 µM) of 0.286 and a relative viability (NCI-H1975; first compound 0.000632 µM) of 0.277. It also gave a relative viability (NCI-H1975; first compound 0.002 µM) of 0.232, a relative viability (NCI-H1975; first compound 0.006325 µM) of 0.18 and a relative viability (NCI-H1975; first compound 0.02 µM) of 0.137. The relative viability (PC-3 [JPC-3]; first compound 0.0002 µM) was 1.01, the relative viability (PC-3 [JPC-3]; first compound 0.000632 µM) was 0.713 and the relative viability (PC-3 [JPC-3]; first compound 0.002 µM) was 0.513. For the same compound, the relative viability (PC-3 [JPC-3]; first compound 0.006325 µM) was 0.265, the relative viability (PC-3 [JPC-3]; first compound 0.02 µM) was 0.195 and the relative viability (LCLC-97TM1; first compound 0.0002 µM) was 0.167. It also gave a relative viability (LCLC-97TM1; first compound 0.000632 µM) of 0.161, a relative viability (LCLC-97TM1; first compound 0.002 µM) of 0.129 and a relative viability (LCLC-97TM1; first compound 0.006325 µM) of 0.109. For the same compound, the relative viability (LCLC-97TM1; first compound 0.02 µM) was 0.0702, the relative viability (HCC-15; first compound 0.0002 µM) was 0.235 and the relative viability (HCC-15; first compound 0.000632 µM) was 0.242. For the same compound, the relative viability (HCC-15; first compound 0.002 µM) was 0.262, the relative viability (HCC-15; first compound 0.006325 µM) was 0.273 and the relative viability (HCC-15; first compound 0.02 µM) was 0.181. For the same compound, the relative viability (NCI-H1650; first compound 0.0002 µM) was 0.387, the relative viability (NCI-H1650; first compound 0.000632 µM) was 0.412 and the relative viability (NCI-H1650; first compound 0.002 µM) was 0.28. For the same compound, the relative viability (NCI-H1650; first compound 0.006325 µM) was 0.263, the relative viability (NCI-H1650; first compound 0.02 µM) was 0.158 and the relative viability (NCI-H1355; first compound 0.0002 µM) was 1.09. For the same compound, the relative viability (NCI-H1355; first compound 0.000632 µM) was 0.958, the relative viability (NCI-H1355; first compound 0.002 µM) was 0.789 and the relative viability (NCI-H1355; first compound 0.006325 µM) was 0.309. The relative viability (NCI-H1355; first compound 0.02 µM) was 0.198, the relative viability (RERF-LC-KJ; first compound 0.0002 µM) was 0.375 and the relative viability (RERF-LC-KJ; first compound 0.000632 µM) was 0.342. For the same compound, the relative viability (RERF-LC-KJ; first compound 0.002 µM) was 0.297, the relative viability (RERF-LC-KJ; first compound 0.006325 µM) was 0.173 and the relative viability (RERF-LC-KJ; first compound 0.02 µM) was 0.157. For the same compound, the relative viability (NCI-H322M; first compound 0.0002 µM) was 0.552, the relative viability (NCI-H322M; first compound 0.000632 µM) was 0.602 and the relative viability (NCI-H322M; first compound 0.002 µM) was 0.689. The relative viability (NCI-H322M; first compound 0.006325 µM) was 0.642, the relative viability (NCI-H322M; first compound 0.02 µM) was 0.486 and the relative viability (NCI-H1563; first compound 0.0002 µM) was 0.701. For the same compound, the relative viability (NCI-H1563; first compound 0.000632 µM) was 0.843, the relative viability (NCI-H1563; first compound 0.002 µM) was 0.69 and the relative viability (NCI-H1563; first compound 0.006325 µM) was 0.608. It also gave a relative viability (NCI-H1563; first compound 0.02 µM) of 0.374.
